One data set concerns A2780. Put plainly: Single agent cytotoxicity assay (CellTiter-Glo). Format: cell-based. Conditions: CTG assay, 72 h; for IC50: Homo sapiens. The method, then:
(§1) A2780, SK-OV-3, OVCAR-3, NCI-H460, NCI-H1975, NCI-H2122, 5637 and HT1376 were cultured in RPMI Medium 1640 (Invitrogen-22400105) supplemented with 10% fetal bovine serum (FBS; Invitrogen-10099141). All the cell lines were maintained in a humidified incubator at 37° C. with 5% CO2. Cell culture media and supplements were purchased from Invitrogen, and tissue culture flasks were purchased from Corning, 96-well plates and 384-well plates were purchased from Greiner. CellTiter-Glo Luminescent Cell Viability Assay kits were purchased from Promega (Promega-G7573), cells counter Vi-Cell was purchased from Beckman, detection instrument Envision was purchased from PerkinElmer.
(§2) Paclitaxcel (used as a reference) and cisplatin were purchased from SELLECK, and they were of highest purity available. All compounds attained solubility in DMSO and when diluted into culture media. DMSO, compounds solutions and culture media were warmed to 37° C. for the solution preparation and dilutions.
(§3) Eight cell lines were allowed to adhere to 96-well plates overnight (100 μL/well), for drug treatments with 3.16 fold dilution, 9 dose points, triplicates or vehicle control, compound stock solutions were prepared in DMSO and added to the wells to give the indicated final drug concentrations. Final DMSO concentration was 0.5%. Cellular ATP concentrations were assessed by using the CellTiter-Glo Cell Viability Assay as per the manufacturer's instructions 72 h after drug addition.
(§4) Stage 1: Single Agent IC50 Determination
(§5) In Stage 1 the IC50 (using 5 or more concentrations) of each individual compound cisplatin, carboplatin, gemcitabine and NUC-1031) in the relevant cell lines was determined.

The next data set concerns NCI-H460. Description: Single agent cytotoxicity assay (CellTiter-Glo). Format: cell-based. Conditions: CTG assay, 72 h; for IC50: Homo sapiens. The method, then: as §1, §2, §3, §4, §5
Another data set concerns HT1376. Put plainly: Single agent cytotoxicity assay (CellTiter-Glo). It counts as cell-based. Conditions: 72 h; for IC50: Homo sapiens, HT-1376, CTG assay. The method, then: as §1, §2, §3, §4, §5
The subject of the next data set is NCI-H1975. Put plainly: Single agent cytotoxicity assay (CellTiter-Glo). It counts as cell-based. Conditions: CTG assay, 72 h; for IC50: Homo sapiens. The method, then: as §1, §2, §3, §4, §5
For a further data set, the system named is SK-OV-3. Put plainly: Single agent cytotoxicity assay (CellTiter-Glo). Format: cell-based. Conditions: 72 h; for IC50: Homo sapiens, SK-OV-3, SK-OV3, CTG assay. The method, then:
as §1, §2, §3, §4, §5

Another data set relates to OVCAR-3. Put plainly: Single agent cytotoxicity assay (CellTiter-Glo). Format: cell-based. Conditions: CTG assay, 72 h; for IC50: Homo sapiens. The method, then: as §1, §2, §3, §4, §5
The next data set has as its system 5637. Put plainly: Single agent cytotoxicity assay (CellTiter-Glo). Format: cell-based. Conditions: CTG assay, 72 h. The method, then: as §1, §2, §3, §4, §5
A short description of data set [1]: ProGem1 phase I study in subjects with advanced solid malignancies. It counts as in vivo, human. An excerpt:
ProGem1 was a first-time-in-human (FTIH), phase I, open label, two stage study to investigate the safety, tolerability, clinical efficacy, pharmacokinetics (PK) and pharmacodynamics (PD) of NUC-1031 given in two parallel dosing schedules in subjects with advanced solid malignancies (EudraCT Number: 2011-005232-26). Subjects had the following tumour types at study entry: colorectal cancer (7 subjects), unknown primary (3), ovarian cancer (12), breast cancer (4), pancreatic cancer (9), cholangiocarcinoma (7), endometrial cancer (3), cervical cancer (2), lung cancer (7), mesothelioma (3), oesophageal cancer (3), cancer of the fallopian tube (1), trophoblast (1), renal cancer (1), gastric cancer (1), anal cancer (1), cancer of the thymus (1) and osteosarcoma (1).

Where two headings read alike, the source gives them in different places.

For the compound `C[C@H](NP(=O)(OC[C@H]1O[C@@H](n2ccc(N)nc2=O)C(F)(F)[C@@H]1O)Oc1ccccc1)C(=O)OCc1ccccc1` (stereo partly drawn) [NUC-1031, 2′-Deoxy-2′,2′-difluoro-D-cytidine-5′-O-[phenyl (benzoxy-L-alaninyl)] phosphate], the “Max Inhibition_%” value is listed as 79.15% with A2780; 91.98% in the data set on NCI-H460; −2.54% in the data set on HT1376 (CTG assay); 37.91% in the data set with NCI-H1975; 61.59% with SK-OV-3 (SK-OV3, CTG assay); 11.76% with OVCAR-3. In addition, in the data set on 5637, the “Max Inhibition_%” value was found to be 77.88%. The IC50 with A2780 (read-out: Ab IC50) was 25 nM; with A2780 (read-out: relative IC50), 16 nM; in the data set with NCI-H460 (read-out: Ab IC50) it was 40 nM; with NCI-H460 (read-out: relative IC50), 40 nM; in the data set with HT1376 (read-out: Ab IC50), > 1980 nM; in the data set on HT1376 (read-out: relative IC50), > 1980 nM. The IC50 with NCI-H1975 (read-out: Ab IC50) was > 1980 nM; in the data set on NCI-H1975 (read-out: relative IC50), 370 nM; in the data set with SK-OV-3 (read-out: Ab IC50), 70 nM; in the data set with SK-OV-3 (read-out: relative IC50), 60 nM; in the data set with OVCAR-3 (read-out: Ab IC50), > 1980 nM; in the data set on OVCAR-3 (read-out: relative IC50), 200 nM. Also, the IC50 with 5637 (read-out: Ab IC50) stood at 200 nM; with 5637 (read-out: relative IC50), 120 nM. The anti-tumour activity result in data set [1] (patients with advanced progressive cancers who exhausted standard options) is recorded as “anti-tumour activity”. Moreover, the “levels of toxic metabolite dFdU released relative to gemcitabine” value in data set [1] (relative to levels normally associated with gemcitabine) is reported as “less than half”.

(Values after patent US20190381084A1, “COMBINATION THERAPY” (NUCANA BIOMED LIMITED, priority 2015, published 2019).)
